Values joined by “and” are separate entries in the source; they are usually repeats but may differ in a detail not shown here. Equal values may be shown once. “Also recorded” adds a separate entry of the source. Read-outs that look alike come from different tables or passages of the source.
How the values were obtained:
[1] = test system: advanced solid tumors; test: Phase I clinical trial: tumor response (RECIST 1.1) and progression free survival; format: in vivo, human
Description: As of Feb. 7, 2011, 42 cancer patients with various advanced solid tumors who have failed chemotherapies were enrolled in the study.
Of the 42 patients dosed, 24 were evaluable for tumor response as of Feb. 7, 2011; 16 (16/24 evaluable patients) achieved stable disease (8 to 75+ weeks).

[2] = previous studies; cited from earlier work
[3] = test system: cancer cells or cancer stem cells; test: In vitro IC50 on cancer cells or cancer stem cells; format: cell-based
[4] = Phase I clinical trial: safety and adverse events
Description: A cycle consists of twice-daily oral administration of the compound for 4 weeks. Cycles were repeated every 4 weeks (28 days) until progression of disease, unacceptable toxicity, or another discontinuation criterion is met. The dose escalation trial was conducted as open label and multicenter trial. A modified Simon accelerated titration scheme was used for dose escalation.
The primary objective of the trial was to determine the safety, tolerability, and recommended phase II dose (RP2D). The secondary objectives of the trial were to determine the pharmacokinetic profile of the compound, pharmacodynamics of the compound, and preliminary antitumor activity of the compound.
The inclusion criteria included histologically or cytologically confirmed solid tumor that is metastatic, unresectable, or recurrent; ≧18 years of age; Measurable disease by RECIST; and Karnofsky≧70%. The exclusion criteria included chemotherapy, radiotherapy, immunotherapy or investigational agent within 4 weeks of first dose; surgery within 4 weeks of first dose; and known brain metastases.

[5] = patient 0001, total daily dose 20 mg qd, Colon adenocarcinoma
[6] = patient 0013, total daily dose 400 mg bid, Gastric adenocarcinoma
[7] = patient 0014, total daily dose 400 mg bid, Ovarian cancer
[8] = patient 0015, total daily dose 400 mg bid, Colon adenocarcinoma
[9] = patient 0020, total daily dose 600 mg bid, Breast Cancer
[10] = Phase I patients, 20-2000 mg/day oral
[11] = Phase I, dose escalated from 20 mg to 2000 mg/day

Structure (SMILES): CC(=O)c1cc2c(o1)C(=O)c1ccccc1C2=O [Compound 1, 2-acetyl-4H,9H-naphtho[2,3-b]furan-4,9-dione]
- patients showing prolonged SD (>12 weeks) ([1]; RECIST 1.1): 12 patients
- evaluable patients with SD/MR by RECIST ([1]; as of Feb. 7, 2011): 16/24 and 16 out of 24
- progression free survival ([1]; blood drug concentration above 1 uM, diverse cancers (FIG. 23)): increase in progression free survival
- patients in whom new metastatic lesions were prevented ([1]; of patients dosed): 83%
- patients showing no metastatic tumors ([1]; out of 24 evaluable patients with advanced refractory cancers): over 80%
- response of colon cancer metastatic lesion to kidney ([1]; patient 0001, 20 mg daily (FIG. 19)): complete regression; also recorded: signs of potent antitumor activity
- New Lesions [1, 5]: 1
- regression [1, 5]: (regression 27.6%)
- New Lesions ([1]; patient 0002, total daily dose 40 mg qd, Gastric adenocarcinoma): 3
- New Lesions ([1]; patient 0003, total daily dose 80 mg qd, Head and Neck carcinoma): 0
- New Lesions ([1]; patient 0004, total daily dose 80 mg bid, Colon adenocarcinoma): 0
- New Lesions ([1]; patient 0006, total daily dose 160 mg bid, Lung adenocarcinoma): 0
- New Lesions ([1]; patient 0008, total daily dose 320 mg bid, Colon adenocarcinoma): 2
- New Lesions ([1]; patient 0010, total daily dose 320 mg bid, Colon adenocarcinoma): 0
- New Lesions ([1]; patient 0011, total daily dose 320 mg bid, Angiosarcoma): 0
- New Lesions ([1]; patient 0012, total daily dose 320 mg bid, Prostate cancer): 0
- Best Response, remark [1, 6]: (signs of regression)
- New Lesions [1, 6]: 0
- Best Response, remark [1, 7]: (CA 125 normalization)
- New Lesions [1, 7]: 0
- CEA change (Best Response, remark) [1, 8]: (CEA? >30-50%)
- New Lesions [1, 8]: 0
- New Lesions ([1]; patient 0016, total daily dose 600 mg bid, Pancreatic adenocarcinoma): 0
- Best Response, remark [1, 9]: (hollow tumor)
- New Lesions [1, 9]: 0
- New Lesions ([1]; patient 0021, total daily dose 800 mg bid, Chondrosarcoma): 0
- New Lesions ([1]; patient 0022, total daily dose 800 mg bid, Prostate cancer): 0
- New Lesions ([1]; patient 0023, total daily dose 800 mg bid, Adenocorticoid): 0
- New Lesions ([1]; patient 0024, total daily dose 1000 mg bid, Rectal cancer): 0
- New Lesions ([1]; patient 0027, total daily dose 1400 mg bid, Colon adenocarcinoma): 2
- New Lesions ([1]; patient 0032, total daily dose 200 mg tid, Colon adenocarcinoma): 0
- New Lesions ([1]; patient 0037, total daily dose 500 mg tid, Colon adenocarcinoma): 0
- progression free survival ([1]; patients with exposure above 1.6 uM for at least 4 hours): improvement in progression free survival
- antitumor activity in animal model [2]: no antitumor activity was observed
- IC50 ([3]; preclinical studies, read-out: IC50 to kill cancer cells or cancer stem cells): 100 to 200 nM
- IC50 ([3]; read-out: IC50 of the compound in vitro): 30 to 500 nM
- tolerability in humans ([4]; 20 mg QD): good tolerability
- tolerability in humans ([4]; 500 mg TID): good tolerability
- Anorexia, Any Grade, # of Events [4, 10]: 4
- Anorexia, Any Grade, % of Total [4, 10]: 4.9%
- Anorexia, Grade 1, # of Events [4, 10]: 3
- Anorexia, Grade 1, % of Total [4, 10]: 3.7%
- Anorexia, Grade 2, # of Events [4, 10]: 1
- Anorexia, Grade 2, % of Total [4, 10]: 1.2%
- Anorexia, Grade 3, # of Events [4, 10]: 0
- Anorexia, Grade 3, % of Total [4, 10]: 0.0%
- Diarrhea, Any Grade, # of Events [4, 10]: 23
- Diarrhea, Any Grade, % of Total [4, 10]: 28.4%
- Diarrhea, Grade 1, # of Events [4, 10]: 20
- Diarrhea, Grade 1, % of Total [4, 10]: 24.7%
- Diarrhea, Grade 2, # of Events [4, 10]: 2
- Diarrhea, Grade 2, % of Total [4, 10]: 2.5%
- Diarrhea, Grade 3, # of Events [4, 10]: 2
- Diarrhea, Grade 3, % of Total [4, 10]: 2.5%
- Dysgusia, Any Grade, # of Events [4, 10]: 3
- Dysgusia, Any Grade, % of Total [4, 10]: 3.7%
- Dysgusia, Grade 1, # of Events [4, 10]: 3
- Dysgusia, Grade 1, % of Total [4, 10]: 3.7%
- Dysgusia, Grade 2, # of Events [4, 10]: 0
- Dysgusia, Grade 2, % of Total [4, 10]: 0.0%
- Dysgusia, Grade 3, # of Events [4, 10]: 0
- Dysgusia, Grade 3, % of Total [4, 10]: 0.0%
- Fatigue, Any Grade, # of Events [4, 10]: 4
- Fatigue, Any Grade, % of Total [4, 10]: 4.9%
- Fatigue, Grade 1, # of Events [4, 10]: 1
- Fatigue, Grade 1, % of Total [4, 10]: 1.2%
- Fatigue, Grade 2, # of Events [4, 10]: 2
- Fatigue, Grade 2, % of Total [4, 10]: 2.5%
- Fatigue, Grade 3, # of Events [4, 10]: 1
- Fatigue, Grade 3, % of Total [4, 10]: 1.2%
- Fever, Any Grade, # of Events [4, 10]: 2
- Fever, Any Grade, % of Total [4, 10]: 2.5%
- Fever, Grade 1, # of Events [4, 10]: 1
- Fever, Grade 1, % of Total [4, 10]: 1.2%
- Fever, Grade 2, # of Events [4, 10]: 1
- Fever, Grade 2, % of Total [4, 10]: 1.2%
- Fever, Grade 3, # of Events [4, 10]: 0
- Fever, Grade 3, % of Total [4, 10]: 0.0%
- Loose stools, Any Grade, # of Events [4, 10]: 2
- Loose stools, Any Grade, % of Total [4, 10]: 2.5%
- Loose stools, Grade 1, # of Events [4, 10]: 2
- Loose stools, Grade 1, % of Total [4, 10]: 2.5%
- Loose stools, Grade 2, # of Events [4, 10]: 0
- Loose stools, Grade 2, % of Total [4, 10]: 0.0%
- Loose stools, Grade 3, # of Events [4, 10]: 0
- Loose stools, Grade 3, % of Total [4, 10]: 0.0%
- Nausea, Any Grade, # of Events [4, 10]: 10
- Nausea, Any Grade, % of Total [4, 10]: 12.3%
- Nausea, Grade 1, # of Events [4, 10]: 8
- Nausea, Grade 1, % of Total [4, 10]: 9.9%
- Nausea, Grade 2, # of Events [4, 10]: 2
- Nausea, Grade 2, % of Total [4, 10]: 2.5%
- Nausea, Grade 3, # of Events [4, 10]: 0
- Nausea, Grade 3, % of Total [4, 10]: 0.0%
- Skin Rash, Any Grade, # of Events [4, 10]: 2
- Skin Rash, Any Grade, % of Total [4, 10]: 2.5%
- Skin Rash, Grade 1, # of Events [4, 10]: 2
- Skin Rash, Grade 1, % of Total [4, 10]: 2.5%
- Skin Rash, Grade 2, # of Events [4, 10]: 0
- Skin Rash, Grade 2, % of Total [4, 10]: 0.0%
- Skin Rash, Grade 3, # of Events [4, 10]: 0
- Skin Rash, Grade 3, % of Total [4, 10]: 0.0%
- Urine Color Change, Any Grade, # of Events [4, 10]: 2
- Urine Color Change, Any Grade, % of Total [4, 10]: 2.5%
- Urine Color Change, Grade 1, # of Events [4, 10]: 2
- Urine Color Change, Grade 1, % of Total [4, 10]: 2.5%
- Urine Color Change, Grade 2, # of Events [4, 10]: 0
- Urine Color Change, Grade 2, % of Total [4, 10]: 0.0%
- Urine Color Change, Grade 3, # of Events [4, 10]: 0
- Urine Color Change, Grade 3, % of Total [4, 10]: 0.0%
- Vomiting, Any Grade, # of Events [4, 10]: 14
- Vomiting, Any Grade, % of Total [4, 10]: 17.3%
- Vomiting, Grade 1, # of Events [4, 10]: 13
- Vomiting, Grade 1, % of Total [4, 10]: 16.0%
- Vomiting, Grade 2, # of Events [4, 10]: 1
- Vomiting, Grade 2, % of Total [4, 10]: 1.2%
- Vomiting, Grade 3, # of Events [4, 10]: 0
- Vomiting, Grade 3, % of Total [4, 10]: 0.0%
- abdominal cramps, Any Grade, # of Events [4, 10]: 6
- abdominal cramps, Any Grade, % of Total [4, 10]: 7.4%
- abdominal cramps, Grade 1, # of Events [4, 10]: 5
- abdominal cramps, Grade 1, % of Total [4, 10]: 6.2%
- abdominal cramps, Grade 2, # of Events [4, 10]: 1
- abdominal cramps, Grade 2, % of Total [4, 10]: 1.2%
- abdominal cramps, Grade 3, # of Events [4, 10]: 0
- abdominal cramps, Grade 3, % of Total [4, 10]: 0.0%
- decreased appetite, Any Grade, # of Events [4, 10]: 2
- decreased appetite, Any Grade, % of Total [4, 10]: 2.5%
- decreased appetite, Grade 1, # of Events [4, 10]: 1
- decreased appetite, Grade 1, % of Total [4, 10]: 1.2%
- decreased appetite, Grade 2, # of Events [4, 10]: 1
- decreased appetite, Grade 2, % of Total [4, 10]: 1.2%
- decreased appetite, Grade 3, # of Events [4, 10]: 0
- decreased appetite, Grade 3, % of Total [4, 10]: 0.0%
- dizzyness, Any Grade, # of Events [4, 10]: 2
- dizzyness, Any Grade, % of Total [4, 10]: 2.5%
- dizzyness, Grade 1, # of Events [4, 10]: 2
- dizzyness, Grade 1, % of Total [4, 10]: 2.5%
- dizzyness, Grade 2, # of Events [4, 10]: 0
- dizzyness, Grade 2, % of Total [4, 10]: 0.0%
- dizzyness, Grade 3, # of Events [4, 10]: 0
- dizzyness, Grade 3, % of Total [4, 10]: 0.0%
- weakness, Any Grade, # of Events [4, 10]: 5
- weakness, Any Grade, % of Total [4, 10]: 6.2%
- weakness, Grade 1, # of Events [4, 10]: 2
- weakness, Grade 1, % of Total [4, 10]: 2.5%
- weakness, Grade 2, # of Events [4, 10]: 3
- weakness, Grade 2, % of Total [4, 10]: 3.7%
- weakness, Grade 3, # of Events [4, 10]: 0
- weakness, Grade 3, % of Total [4, 10]: 0.0%
- tolerability of dose escalation in patients ([4]; Phase I, 20 mg to 2000 mg/day): without drug-induced adverse effects; also recorded: well tolerated
- dose-limiting toxicity [4, 11]: No dose-limiting toxicity was observed; also recorded: No dose limiting toxicity was observed
- maximum tolerated dose (MTD) [4, 11]: not reached; also recorded: neither MTD nor RP2D has been reached

— patent US9084766B2, “Compounds and compositions for targeting cancer stem cells” (Boston Biomedical, Inc., priority 2010, dated 2015)
